# Results from PubChem BioAssay (NCI).
#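 96-well plates; 48 h exposure; 5 concentrations. Endpoints by linear interpolation between flanking doses. Not reached: highest tested concentration assigned. The concentration for 50% growth inhibition is given as GI50. TGI is the concentration that stops growth completely.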
# Test system: EKVX NSCLC
# Assay: NCI-60 cell line screen, 48 h
Compound,GI50,TGI
CCN(CC)CCOc1ccc(/C(=C(\C)c2ccc(F)c(OC)c2)c2ccc(Cl)cc2)cc1,2.46 µM,5.39 µM
Cc1[nH]n(-c2cccc(Cl)c2)c(=O)c1/C=C1\C=Nc2ccc(Br)cc21,5.45 µM,73.3 µM
COC(COC(=O)N1CCN(C=O)CC1)C1=C(N2CC2)C(=O)C(C)=C(N2CC2)C1=O (stereo unspecified),,10.9 µM
O=C(CCCN1CC=C(n2c(=O)[nH]c3ccccc32)CC1)c1ccc(F)cc1,16.7 µM,80.1 µM

# Test system: OVCAR-3 ovarian
# Assay: NCI-60 cell line screen, 48 h
Compound,GI50,TGI
CCN(CC)CCOc1ccc(/C(=C(\C)c2ccc(F)c(OC)c2)c2ccc(Cl)cc2)cc1,2.26 µM,4.6 µM
Cc1[nH]n(-c2cccc(Cl)c2)c(=O)c1/C=C1\C=Nc2ccc(Br)cc21,1.82 µM,3.54 µM
COC(COC(=O)N1CCN(C=O)CC1)C1=C(N2CC2)C(=O)C(C)=C(N2CC2)C1=O (stereo unspecified),,2.52 µM
O=C(CCCN1CC=C(n2c(=O)[nH]c3ccccc32)CC1)c1ccc(F)cc1,31.4 µM,> 100 µM

# Test system: HCT-116 colon
# Assay: NCI-60 cell line screen, 48 h
Compound,GI50,TGI
CCN(CC)CCOc1ccc(/C(=C(\C)c2ccc(F)c(OC)c2)c2ccc(Cl)cc2)cc1,2.24 µM,4.86 µM
Cc1[nH]n(-c2cccc(Cl)c2)c(=O)c1/C=C1\C=Nc2ccc(Br)cc21,2.65 µM,7.03 µM
COC(COC(=O)N1CCN(C=O)CC1)C1=C(N2CC2)C(=O)C(C)=C(N2CC2)C1=O (stereo unspecified),,1.55 µM
O=C(CCCN1CC=C(n2c(=O)[nH]c3ccccc32)CC1)c1ccc(F)cc1,28.5 µM,> 100 µM

# Test system: HT29 colon
# Assay: NCI-60 cell line screen, 48 h
Compound,GI50,TGI
CCN(CC)CCOc1ccc(/C(=C(\C)c2ccc(F)c(OC)c2)c2ccc(Cl)cc2)cc1,0.582 µM,2.87 µM
Cc1[nH]n(-c2cccc(Cl)c2)c(=O)c1/C=C1\C=Nc2ccc(Br)cc21,4.5 µM,> 100 µM
COC(COC(=O)N1CCN(C=O)CC1)C1=C(N2CC2)C(=O)C(C)=C(N2CC2)C1=O (stereo unspecified),,0.999 µM
O=C(CCCN1CC=C(n2c(=O)[nH]c3ccccc32)CC1)c1ccc(F)cc1,27.6 µM,> 100 µM

# Test system: UACC-62 melanoma
# Assay: NCI-60 cell line screen, 48 h
Compound,GI50,TGI
CCN(CC)CCOc1ccc(/C(=C(\C)c2ccc(F)c(OC)c2)c2ccc(Cl)cc2)cc1,2.71 µM,5.06 µM
Cc1[nH]n(-c2cccc(Cl)c2)c(=O)c1/C=C1\C=Nc2ccc(Br)cc21,4.34 µM,18.2 µM
COC(COC(=O)N1CCN(C=O)CC1)C1=C(N2CC2)C(=O)C(C)=C(N2CC2)C1=O (stereo unspecified),,1.35 µM
O=C(CCCN1CC=C(n2c(=O)[nH]c3ccccc32)CC1)c1ccc(F)cc1,42.7 µM,> 100 µM

# Test system: DU-145 prostate
# Assay: NCI-60 cell line screen, 48 h
Compound,GI50,TGI
CCN(CC)CCOc1ccc(/C(=C(\C)c2ccc(F)c(OC)c2)c2ccc(Cl)cc2)cc1,2.51 µM,5.28 µM
Cc1[nH]n(-c2cccc(Cl)c2)c(=O)c1/C=C1\C=Nc2ccc(Br)cc21,5.71 µM,> 100 µM
COC(COC(=O)N1CCN(C=O)CC1)C1=C(N2CC2)C(=O)C(C)=C(N2CC2)C1=O (stereo unspecified),,4.01 µM
O=C(CCCN1CC=C(n2c(=O)[nH]c3ccccc32)CC1)c1ccc(F)cc1,68.1 µM,> 100 µM

# Test system: KM12 colon
# Assay: NCI-60 cell line screen, 48 h
Compound,GI50,TGI
CCN(CC)CCOc1ccc(/C(=C(\C)c2ccc(F)c(OC)c2)c2ccc(Cl)cc2)cc1,2.27 µM,4.73 µM
Cc1[nH]n(-c2cccc(Cl)c2)c(=O)c1/C=C1\C=Nc2ccc(Br)cc21,6.65 µM,> 100 µM
COC(COC(=O)N1CCN(C=O)CC1)C1=C(N2CC2)C(=O)C(C)=C(N2CC2)C1=O (stereo unspecified),,2.79 µM
O=C(CCCN1CC=C(n2c(=O)[nH]c3ccccc32)CC1)c1ccc(F)cc1,30.7 µM,> 100 µM

# Test system: K-562 leukemia
# Assay: NCI-60 cell line screen, 48 h
Compound,GI50,TGI
CCN(CC)CCOc1ccc(/C(=C(\C)c2ccc(F)c(OC)c2)c2ccc(Cl)cc2)cc1,0.855 µM,6 µM
COC(COC(=O)N1CCN(C=O)CC1)C1=C(N2CC2)C(=O)C(C)=C(N2CC2)C1=O (stereo unspecified),,> 100 µM
O=C(CCCN1CC=C(n2c(=O)[nH]c3ccccc32)CC1)c1ccc(F)cc1,29.3 µM,> 100 µM

# Test system: OVCAR-4 ovarian
# Assay: NCI-60 cell line screen, 48 h
Compound,GI50,TGI
CCN(CC)CCOc1ccc(/C(=C(\C)c2ccc(F)c(OC)c2)c2ccc(Cl)cc2)cc1,2.1 µM,4.45 µM
Cc1[nH]n(-c2cccc(Cl)c2)c(=O)c1/C=C1\C=Nc2ccc(Br)cc21,1.59 µM,2.95 µM
COC(COC(=O)N1CCN(C=O)CC1)C1=C(N2CC2)C(=O)C(C)=C(N2CC2)C1=O (stereo unspecified),,2.13 µM
O=C(CCCN1CC=C(n2c(=O)[nH]c3ccccc32)CC1)c1ccc(F)cc1,30 µM,> 100 µM

# Test system: TK-10 renal
# Assay: NCI-60 cell line screen, 48 h
Compound,GI50,TGI
CCN(CC)CCOc1ccc(/C(=C(\C)c2ccc(F)c(OC)c2)c2ccc(Cl)cc2)cc1,2.56 µM,5.31 µM
Cc1[nH]n(-c2cccc(Cl)c2)c(=O)c1/C=C1\C=Nc2ccc(Br)cc21,2.6 µM,5.18 µM
COC(COC(=O)N1CCN(C=O)CC1)C1=C(N2CC2)C(=O)C(C)=C(N2CC2)C1=O (stereo unspecified),,2.09 µM
O=C(CCCN1CC=C(n2c(=O)[nH]c3ccccc32)CC1)c1ccc(F)cc1,87 µM,> 100 µM

# Test system: UO-31 renal
# Assay: NCI-60 cell line screen, 48 h
Compound,GI50,TGI
CCN(CC)CCOc1ccc(/C(=C(\C)c2ccc(F)c(OC)c2)c2ccc(Cl)cc2)cc1,1.89 µM,3.96 µM
Cc1[nH]n(-c2cccc(Cl)c2)c(=O)c1/C=C1\C=Nc2ccc(Br)cc21,2.08 µM,6.57 µM
COC(COC(=O)N1CCN(C=O)CC1)C1=C(N2CC2)C(=O)C(C)=C(N2CC2)C1=O (stereo unspecified),,3.19 µM
O=C(CCCN1CC=C(n2c(=O)[nH]c3ccccc32)CC1)c1ccc(F)cc1,27.5 µM,> 100 µM

# Test system: SF-539 CNS
# Assay: NCI-60 cell line screen, 48 h
Compound,GI50,TGI
CCN(CC)CCOc1ccc(/C(=C(\C)c2ccc(F)c(OC)c2)c2ccc(Cl)cc2)cc1,2.45 µM,4.74 µM
Cc1[nH]n(-c2cccc(Cl)c2)c(=O)c1/C=C1\C=Nc2ccc(Br)cc21,4.32 µM,16.7 µM
COC(COC(=O)N1CCN(C=O)CC1)C1=C(N2CC2)C(=O)C(C)=C(N2CC2)C1=O (stereo unspecified),,0.342 µM

# Test system: LOX IMVI melanoma
# Assay: NCI-60 cell line screen, 48 h
Compound,GI50,TGI
CCN(CC)CCOc1ccc(/C(=C(\C)c2ccc(F)c(OC)c2)c2ccc(Cl)cc2)cc1,2.46 µM,4.66 µM
Cc1[nH]n(-c2cccc(Cl)c2)c(=O)c1/C=C1\C=Nc2ccc(Br)cc21,5.48 µM,38 µM
COC(COC(=O)N1CCN(C=O)CC1)C1=C(N2CC2)C(=O)C(C)=C(N2CC2)C1=O (stereo unspecified),,0.613 µM
O=C(CCCN1CC=C(n2c(=O)[nH]c3ccccc32)CC1)c1ccc(F)cc1,26 µM,> 100 µM

# Test system: MCF7 breast
# Assay: NCI-60 cell line screen, 48 h
Compound,GI50,TGI
CCN(CC)CCOc1ccc(/C(=C(\C)c2ccc(F)c(OC)c2)c2ccc(Cl)cc2)cc1,2.17 µM,4.74 µM
Cc1[nH]n(-c2cccc(Cl)c2)c(=O)c1/C=C1\C=Nc2ccc(Br)cc21,5.95 µM,> 100 µM
COC(COC(=O)N1CCN(C=O)CC1)C1=C(N2CC2)C(=O)C(C)=C(N2CC2)C1=O (stereo unspecified),,1.07 µM
O=C(CCCN1CC=C(n2c(=O)[nH]c3ccccc32)CC1)c1ccc(F)cc1,31.1 µM,> 100 µM

# Test system: HCT-15 colon
# Assay: NCI-60 cell line screen, 48 h
Compound,GI50,TGI
CCN(CC)CCOc1ccc(/C(=C(\C)c2ccc(F)c(OC)c2)c2ccc(Cl)cc2)cc1,1.08 µM,3.39 µM
